From ChEMBL document CHEMBL1201862, “PubChem BioAssay data set” (2004) come the findings set out here.

Assay in all cases: NCI anticancer screen, dose series, 48 h
The test system of experiment [1] is OVCAR-3.
Experiment [2] deals with OVCAR-8.
Experiment [3] relates to NCI/ADR-RES.
Experiment [4] concerns DU-145.
The subject of experiment [5] is CCRF-CEM.
Experiment [6] relates to MDA-N.
Experiment [7] has as its system COLO 205.
The subject of experiment [8] is TK-10.
Experiment [9] concerns SF-268.
Experiment [10] concerns IGROV-1.
Experiment [11] concerns OVCAR-4.
In experiment [12] the test system is ACHN.
Experiment [13] concerns U-251.
In experiment [14] the test system is SW-620.
For experiment [15], the system named is UACC-257.
The subject of experiment [16] is NCI-H460.
Experiment [17] deals with HCT-15.
Experiment [18] concerns SK-MEL-5.

Each structure is given as a SMILES string.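 Five compound concentrations were applied to cells in 96-well plates for 48 hours; endpoints were derived by simple linear interpolation of the resulting dose-response curve. GI50: concentration for 50% inhibition of growth.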 Active and inactive are the calls of the source. No stated cut-off is given here; in the data, active = GI50 up to about 1.1 µM and inactive = higher.

As to `COC1=CC(=O)c2c(c(COP(=O)(N(C)CCBr)N(C)CCBr)cn2C)C1=O`, the GI50 in [1] is 0.226 µM (active); in experiment [2], < 0.0264 µM (active); in experiment [3] it was 0.134 µM (active); in experiment [4] it was 0.0134 µM (active); in experiment [5] it was < 0.0158 µM (active); in experiment [6] it was 0.109 µM (active). Moreover, the GI50 in experiment [7] was 0.0521 µM (active); in [8], 0.17 µM (active); in [9], 0.0431 µM (active); in experiment [10] it was 1.17 µM (inactive); in experiment [11], 1.33 µM (inactive); in experiment [12], < 0.01 µM (active). Further, the GI50 in experiment [13] was < 0.0225 µM (active); in experiment [14], < 0.0109 µM (active); in experiment [15], 0.258 µM (active); in experiment [16] it was < 0.01 µM (active); in experiment [17], below 0.0234 µM; in [18], 0.0836 µM (active).

In the case of `CCN(CC)CCN1C(=O)c2cccc3cc(N)cc(c23)C1=O`, the GI50 in experiment [1] was 12.7 µM (inactive); in experiment [2], 6.68 µM (inactive); in experiment [3], 7.21 µM (inactive); in [4] it was 8.45 µM (inactive); in [5], 6.28 µM (inactive); in experiment [6], 10.3 µM (inactive). Besides, the GI50 in experiment [7] is 4.41 µM (inactive); in [8], 17.9 µM (inactive); in experiment [9] it was 12.6 µM (inactive); in [10], 7.59 µM (inactive); in [11], 12.4 µM (inactive); in experiment [12] it was 4.94 µM (inactive). Also, the GI50 in experiment [13] was 9.48 µM (inactive); in [14], 4.91 µM (inactive); in experiment [15] it was 10.7 µM (inactive); in experiment [16], 3.98 µM (inactive); in [17], 5.43 µM; in experiment [18], 12.9 µM (inactive).

Regarding `CCOC(=O)/C(=C\c1c[nH]c2ccccc12)P(=O)(OCC)OCC`, the GI50 in experiment [1] is 19.3 µM (inactive); in [2] it was 22.3 µM (inactive); in experiment [3] it was 25.3 µM (inactive); in experiment [4], 46.1 µM (inactive); in experiment [5], 16.7 µM (inactive); in experiment [6], 35.8 µM (inactive). Besides, the GI50 in experiment [7] is 20.7 µM (inactive); in [8] it was 42.6 µM (inactive); in experiment [9], 29.5 µM (inactive); in [10] it was 39 µM (inactive); in experiment [11] it was 23.9 µM (inactive); in [12] it was 41.4 µM (inactive). Besides, the GI50 is 33.8 µM (inactive) in experiment [13]; 45.7 µM (inactive) in experiment [14]; 45.3 µM (inactive) in [15]; 24.5 µM (inactive) in [16]; 27.7 µM in [17]; 55.8 µM (inactive) in experiment [18].

Turning to `CNC1=C(C)C(=O)C(O)=C([C@H](C)CCC=C(C)C)C1=O`, the GI50 in experiment [1] is 11.7 µM (inactive); in [2] it was 10.7 µM (inactive); in [3], 5.21 µM (inactive); in experiment [4] it was 30.6 µM (inactive); in experiment [5], 3.95 µM (inactive); in [6], 29.6 µM (inactive). The GI50 in [7] was 25.4 µM (inactive); in [8] it was 31 µM (inactive); in experiment [9], 19.1 µM (inactive); in [10], 3.91 µM (inactive); in [11] it was 11.7 µM (inactive); in experiment [12] it was 11.2 µM (inactive). For the same molecule, the GI50 was 27.7 µM (inactive) in experiment [13]; 23.9 µM (inactive) in experiment [14]; 32.7 µM (inactive) in [15]; 10.5 µM (inactive) in [16]; 6.92 µM in experiment [17]; 14.4 µM (inactive) in experiment [18].

With `O=C(CCO)OCCCCCC/C=C\CCCCCC/C=C\CCCCCCCCOC(=O)CCO`, the GI50 in experiment [1] was 23 µM (inactive); in [2], 18.5 µM (inactive); in experiment [3], 17.9 µM (inactive); in experiment [4], 16.4 µM (inactive); in [5], 3.05 µM (inactive); in experiment [6] it was 17.8 µM (inactive). Also, the GI50 in experiment [7] was > 100 µM (inactive); in [8], 17.7 µM (inactive); in experiment [9], 18.5 µM (inactive); in [10], 17.2 µM (inactive); in [11] it was 25.3 µM (inactive); in [12], 23.9 µM (inactive). Also, the GI50 in experiment [13] was 16.7 µM (inactive); in [14] it was 26.6 µM (inactive); in [15], 17.2 µM (inactive); in experiment [16], 17.3 µM (inactive); in experiment [17], 15.6 µM; in experiment [18] it was > 100 µM (inactive).

Take `O=C1C=C(NCCc2cc(Br)c(O)c(Br)c2)C(=O)c2[nH]cnc21`: the GI50 was 21.6 µM (inactive) in experiment [1]; 38.7 µM (inactive) in experiment [2]; > 100 µM (inactive) in [3]; 36.7 µM (inactive) in experiment [4]; 2.28 µM (inactive) in [5]; 18.6 µM (inactive) in experiment [6]. For the same molecule, the GI50 is 24.7 µM (inactive) in experiment [7]; 89.7 µM (inactive) in experiment [8]; 49 µM (inactive) in experiment [9]; 17.6 µM (inactive) in [10]; 19.1 µM (inactive) in [11]; 42.9 µM (inactive) in [12]. For the same molecule, the GI50 in experiment [13] is 38.3 µM (inactive); in experiment [14] it was 21.6 µM (inactive); in experiment [15] it was 5.6 µM (inactive); in experiment [16], 11.1 µM (inactive); in [17], 18 µM; in experiment [18], 15.6 µM (inactive).

`O=C1CC(n2ccnc2)c2c(Cl)sc(Cl)c21` (stereo not drawn): the GI50 in experiment [1] was 15.4 µM (inactive); in experiment [2], 13.1 µM (inactive); in [3] it was 23.8 µM (inactive); in experiment [4], 16.1 µM (inactive); in [5], 4.78 µM (inactive); in experiment [6], 16.2 µM (inactive). Besides, the GI50 in experiment [7] is 18.2 µM (inactive); in [8], 20.2 µM (inactive); in experiment [9], 21.9 µM (inactive); in experiment [10], 12.7 µM (inactive); in experiment [11], 19.5 µM (inactive); in experiment [12] it was 18.1 µM (inactive). Moreover, the GI50 in experiment [13] was 17.7 µM (inactive); in experiment [14], 11 µM (inactive); in [15], 15.5 µM (inactive); in experiment [16], 26 µM (inactive); in experiment [17] it was 14.2 µM; in [18] it was 18.4 µM (inactive).

Take `CCOC(=O)Oc1cc2c(ccn2C)c2c1c1ccccc1n2C(=O)OCC`: the GI50 in [1], in experiment [2], in [3], in [4], in experiment [5] and in experiment [6] was > 100 µM (inactive) throughout. For the same molecule, the GI50 in experiment [7], in [8], in [9], in experiment [10], in experiment [11] and in experiment [12] was > 100 µM (inactive) each time. In addition, the GI50 is > 100 µM (inactive) in experiment [13]; > 100 µM (inactive) in experiment [14]; > 100 µM (inactive) in experiment [15]; > 100 µM (inactive) in experiment [16]; above 100 µM in experiment [17]; > 100 µM (inactive) in [18].

Turning to `COC(=O)c1ccc(/C=C/C2=CC(=O)C=CC2=O)cc1`, the GI50 in experiment [1] was 9.73 µM (inactive); in experiment [2], 16.8 µM (inactive); in [3] it was 22.4 µM (inactive); in [4] it was 45.1 µM (inactive); in experiment [5], 2.4 µM (inactive); in experiment [6] it was 41.7 µM (inactive). For the same molecule, the GI50 was 18.7 µM (inactive) in experiment [7]; 21.2 µM (inactive) in experiment [8]; 16.7 µM (inactive) in experiment [9]; 16.7 µM (inactive) in [10]; 19.9 µM (inactive) in experiment [11]; 14.7 µM (inactive) in [12]. In addition, the GI50 in experiment [13] was 17.3 µM (inactive); in [14] it was 16.8 µM (inactive); in [15], 17.1 µM (inactive); in [16], 23.9 µM (inactive); in experiment [17] it was 16.1 µM; in experiment [18], 20.8 µM (inactive).

Turning to `CC1=C(C(=O)OC2CC3CCC2(C)C3(C)C)C2Nc3ccccc3N(C)C2O1` (stereo not drawn), the GI50 in [1] is 2.24 µM (inactive); in experiment [2], 2.37 µM (inactive); in experiment [3], 2.99 µM (inactive); in experiment [4], 1.47 µM (inactive); in experiment [5] it was 2.04 µM (inactive); in experiment [6], 1.77 µM (inactive). Besides, the GI50 in experiment [7] is 0.918 µM (active); in experiment [8] it was 4.07 µM (inactive); in experiment [9] it was 4.8 µM (inactive); in experiment [10], 1.77 µM (inactive); in experiment [11], 1.67 µM (inactive); in experiment [12] it was 2.74 µM (inactive). The GI50 is 3.58 µM (inactive) in experiment [13]; 2.14 µM (inactive) in [14]; 1.79 µM (inactive) in experiment [15]; 1.6 µM (inactive) in [16]; 2.01 µM in experiment [17]; 1.69 µM (inactive) in experiment [18].

As for `CCOC(=O)[C@@]12C[C@](/C=C/OC)(O[Si](C)(C)C)[C@@]13c1cc(OC)c(OC)cc1CCN3C(=O)C2O` (stereo partly drawn), the GI50 in experiment [1], in [2], in experiment [3], in experiment [4], in experiment [5] and in experiment [6] was > 100 µM (inactive) each time. Moreover, the GI50 in [7], in [8], in experiment [9], in experiment [10], in experiment [11] and in experiment [12] was > 100 µM (inactive) throughout. Further, the GI50 in experiment [13] was > 100 µM (inactive); in experiment [14], > 100 µM (inactive); in experiment [15], > 100 µM (inactive); in experiment [16], > 100 µM (inactive); in [17] it was above 100 µM; in [18], 38.5 µM (inactive).
